According to patent publication US8114381B2, “Radiolabeled compounds and compositions, their precursors and methods for their production” (The University of British Columbia, priority 2004, dated 2012):

Experiments:
Format in all cases: physicochemical
[1] = Spectroscopic study of protecting group hydrolysis rate; details: 200 mM Acetic acid at pH 3.5, 2 mM boron compound, 20 mM KHF2
Procedure: Prior to ^18F-labeling of the final DNA compound or other boron-based fluoride acceptors, dilute labeling conditions were developed for 4-(4,4,5,5-Tetramethyl-1,3,2-dioxaborolan-2-yl) aniline with cold ^19F and the expectation that these labeling conditions can be extrapolated onto ^18F studies. The general conditions established are as follows: 200 mM Acetic acid at pH 3.5, with 2 mM boron compound, and 20 mM KHF2.

[2] = Kinetics of fluorination of boron compound with KHF2; details: 100 mM Acetic acid at pH 3.5
Source text: Prior to ^18F-labeling of the final DNA compound or other boron-based fluoride acceptors, dilute labeling conditions were developed for 4-(4,4,5,5-Tetramethyl-1,3,2-dioxaborolan-2-yl) aniline with cold ^19F and the expectation that these labeling conditions can be extrapolated onto ^18F studies. […]

[3] = 19F NMR stability of B-F bond with 20 mM boric acid chase or in presence of boric acid; details: 20 mM boric acid chase (chase at 1 h, NMR at 2 h) or fluorination in presence of 20 mM boric acid
Procedure: Fluorination after a 20 mM boric acid chase (chase at 1 h, NMR taken at 2 h): ^19F NMR (300 MHz, D2O, TFA ref) δ −50.23 (fluorine-boric acid species #1), δ−53.89 (KHF2), δ −62.3 (fluorine-boric acid species #2), δ −66.30 (s, φBF3). Fluorination in the presence of boric acid: ^19F NMR (300 MHz, D2O, TFA ref) δ −50.02 (fluorine-boric acid species #1), δ −52.47 (KHF2), δ −62.0 (fluorine-boric acid species #2), δ −65.65 (s, φBF3).

SMILES | protecting group hydrolysis rate [1] [min⁻¹] | rate of fluorination [2] [min⁻¹] | stability of B—F bond (persistence of 19F NMR peak near δ −66) [3]
CC1(C)OB(c2ccc(N)cc2)OC1(C)C [4-(4,4,5,5-Tetramethyl-1,3,2-dioxaborolan-2-yl) aniline] | 0.66 ± 0.04 | 2.8 ± 0.3 | 
[NH3+]c1ccc([B-](F)(F)F)cc1 [φBF3, 4-Ammoniumphenyl Trifluoroborate] |  |  | stable
